Measurements taken from US11371097B2, “Articles for diagnosis of liver fibrosis” (THE GOVERNMENT OF THE UNITED STATES, as represented by THE …, priority 2015, dated 2022).
Values joined by “and” are separate entries in the source; they are usually repeats but may differ in a detail not shown here. Identical values can stand only once. Like-named read-outs stand apart in the source and are kept apart here.

Experiments:
liver [1] = assay type: in vivo, Male Sprague-Dawley rats; details: for Periportal fibrosis (Masson's trichrome): 162 mg/kg/day; for Periportal fibrosis (Masson's trichrome) / Centrilobular collagenous accumulation (Masson's trichrome): five-day oral administration; for Fibrosis histopathology: low-dose (carbon tetrachloride: all doses); for Centrilobular collagenous accumulation (Masson's trichrome): 200 mg/kg/day
Description: All chemical compounds were diluted in corn oil (CAS No. 8001-30-7) (MP Biomedicals, LLC (Solon, Ohio)). The dose volume was 5 mL/kg. Doses were selected based on doses published in the DrugMatrix database, the National Toxicology Program reports, and ATSDR reports.
(§1) In vivo rat experiments were performed at Integrated Laboratory Systems (ILS, Research Triangle Park, NC). ILS's Institutional Animal Care and Use Committee approved all experimental procedures. Research was conducted in compliance with the Animal Welfare Act, and other Federal statutes and regulations relating to animals and experiments involving animals and adheres to principles stated in the “Guide for Care and Use of Laboratory Animals” as prepared by the Committee on Care and Use of Laboratory Animals of the Institute of Laboratory Animal Resources, National Research Council in facilities that are fully accredited by the Association for Assessment and Accreditation of Laboratory Animal Care, International. Male Sprague-Dawley rats (CD IGS [CRL:CD (SD)]) were purchased from Charles River Laboratories (Stone Ridge, N.Y.). Rats weighing 215-245 g (8 weeks old) were used. Briefly, rats were housed two per cage with a rat tunnel enrichment device (Bio-Serve, Frenchtown, N.J.). Rats were fed a Purina Rodent Diet No. 5002 (Ralston Purina Co., St. Louis, Mo.), supplied ad libitum. Animals received reverse osmosis-treated tap water (City of Durham, N.C.) ad libitum, which was changed at least once weekly. Controls in the animal rooms were set to maintain temperatures between 20-In vivo rat experiments were performed at Integrated Laboratory Systems (ILS, Research Triangle Park, NC). ILS's Institutional Animal Care and Use Committee approved all experimental procedures. Research was conducted in compliance with the Animal Welfare Act, and other Federal statutes and regulations relating to animals and experiments involving animals and adheres to principles stated in the “Guide for Care and Use of Laboratory Animals” as prepared by the Committee on Care and Use of Laboratory Animals of the Institute of Laboratory Animal Resources, National Research Council in facilities that are fully accredited by the Association for Assessment and Accreditation of Laboratory Animal Care, International. Male Sprague-Dawley rats (CD IGS [CRL:CD (SD)]) were purchased from Charles River Laboratories (Stone Ridge, N.Y.). Rats weighing 215-245 g (8 weeks old) were used. Briefly, rats were housed two per cage with a rat tunnel enrichment device (Bio-Serve, Frenchtown, N.J.). Rats were fed a Purina Rodent Diet No. 5002 (Ralston Purina Co., St. Louis, Mo.), supplied ad libitum. Animals received reverse osmosis-treated tap water (City of Durham, N.C.) ad libitum, which was changed at least once weekly. Controls in the animal rooms were set to maintain temperatures between 20-25° C. with a relative humidity of 30-70% and a 12-hour light/12-hour dark cycle, lights on at 6:00 AM. Clinically healthy animals were assigned to dose groups using a procedure that stratifies animals across groups by body weight such that mean body weight of each group was not statistically different from any other group using analysis of variance (Statistical Analysis System version 9.2, SAS Institute, Cary, N.C.). Animals were dosed by oral gavage for five consecutive days (+10 minutes from the previous day's dose administration time). Volume was based upon daily body weight.
Animals were observed cageside one hour following daily dose administration, then 1-2 times per day during dosing regimens. Body weights were measured daily prior to dose administration, and prior to euthanasia. Twenty-four hours after the final dose administration, animals were anesthetized with isoflurane then euthanized by exsanguination followed by decapitation. Livers were harvested at necropsy and weighed to within 0.1 g. One half of the left lobe of the liver was fixed in 10% formalin. […]

[2] = assay type: in vivo, Male Sprague-Dawley rats; details: for Body weight change over the five-day exposure interval: highest dose(s)
Description: as §1
(§2) Animals were observed cageside one hour following daily dose administration, then 1-2 times per day during dosing regimens. Body weights were measured daily prior to dose administration, and prior to euthanasia. Twenty-four hours after the final dose administration, animals were anesthetized with isoflurane then euthanized by exsanguination followed by decapitation. Livers were harvested at necropsy and weighed to within 0.1 g. One half of the left lobe of the liver was fixed in 10% formalin. The remaining half of the left lobe of the liver was flash frozen in liquid nitrogen, then stored below −70° C. Liver specimens were frozen in less than three minutes from time of death.

liver gene expression = assay: Liver gene expression by microarray (transcriptomic analysis); assay type: in vivo, rats
Description: Serum miRNA expression was measured by next-generation sequencing. Gene expression in the liver was determined by microarray, and global serum and liver protein expression was determined by semi-quantitative mass spectrometry. […] Transcriptomic analysis identified 506 differentially expressed genes in the liver. 13 miRNAs were predicted to target 100 unique differentially expressed genes in the liver. Global proteomics analysis identified 131 differentially expressed proteins in the liver and 53 in the serum. Of these, 7 miRNAs targeted 13 unique genes coding for differentially expressed liver tissue proteins and 3 miRNAs targeted 3 unique genes coding for serum proteins. These 16 differentially expressed miRNAs in the serum are predicted to target and potentially regulate gene expression contributing to the progression of toxic liver injury. (Fermenter M G et al. Serum miRNA as prognostic indicators of toxic liver injury. Submitted abstract in October 2015 for presentation at the Society of Toxicology in March 2016 (New Orleans, La.)).

liver [3] = details: 5-7 days oral administration or intraperitoneal injection, various doses; cited from earlier work
[4] = Observation of plasma (lipemia) after dosing; assay type: in vivo, Male Sprague-Dawley rats; details: all doses
Description: as §2

[5] = 4,4′-MDA 22 mg/kg, animals 89-92
[6] = 4,4′-MDA 59.7 mg/kg, animals 93-96
[7] = 4,4′-MDA 162 mg/kg, animals 97-100
[8] = across dose groups, five days (figure legend)
[9] = oral gavage five days, across doses
[10] = exposures on the gene panel (FIG. 9 legend)
[11] = histopathology score, individual animals, Carbon Tetrachloride 200, Bromobenzene 785, Dexamethasone 1 mg/kg
[12] = Carbon Tetrachloride 200 mg/kg, animal 54
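Wherever Inflammation is given: Severity grades from None 0% through Minimal Mild Moderate to Marked over 80% tissue affected.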
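Wherever Vacuolation is given: Severity grades from None 0% through Minimal Mild Moderate to Marked over 80% tissue affected.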

Nc1ccc(Cc2ccc(N)cc2)cc1 [4,4′-methylenedianiline]
Periportal fibrosis (Masson's trichrome) (liver [1]): periportal fibrosis
Periportal fibrosis (Masson's trichrome) (liver [1]; listed as 4,4′-methylenediani line): Perioportal fibrosis was confirmed
Bile Duct Hyperplasia and Fibroplasia (liver [1]; [5]): 0
Inflammation (liver [1]; [5]): 0
Necrosis (liver [1]; [5]): 0
Vacuolation (liver [1]; [5]): 0
Bile Duct Hyperplasia and Fibroplasia (liver [1]; [6]): 2 and 3
Inflammation (liver [1]; [6]): 2 and 3
Vacuolation (liver [1]; [6]): 0
Bile Duct Hyperplasia and Fibroplasia (liver [1]; [7]): 3 and 2
Cytoplasmic Alteration (liver [1]; [7]): 2 and 3
Inflammation (liver [1]; [7]): 2
Necrosis (liver [1]; [7]): 2 and 1
Vacuolation (liver [1]; [7]): 0
Combined histopathological scores as percent of animals with pathology (liver [1]; [8]): dose-dependent increase in severe pathology
Fibrosis histopathology (liver [1]): without fibrosis
Degree of fibrosis (liver [1]; [9]): dose-dependent increase in the degree of fibrosis
Histopathology: bile duct hyperplasia, fibrosis, necrosis (liver [1]; oral gavage five days, high doses): caused bile duct hyperplasia comorbid with fibrosis and necrosis
Body weight gain over the five experimental dosing days ([2]; dose groups): decrease in body weight gain
Body weight change over the five-day exposure interval [2]: gained less weight over the five-day exposure interval than their low-dose counterparts
Differentially expressed genes (liver gene expression): 506
Fibrosis score in the DrugMatrix study (liver [3]): scored fibrosis-positive

Brc1ccccc1 [bromobenzene]
Combined histopathological scores as percent of animals with pathology (liver [1]; [8]): dose-dependent increase in severe pathology
Histopathological evidence of bile duct hyperplasia or fibrosis (liver [1]; any dose): did not cause histopathological evidence of bile duct hyperplasia or fibrosis at any dose
Histopathological evidence of vacuolation and/or glycogen accumulation (liver [1]; [10]): correlated with histopathological evidence of vacuolation and/or glyocgen accumulation
Vacuolation (liver [1]; highest dose): varying degrees of vacuolation in all experimental animals
Bile Duct Hyperplasia and Fibroplasia (liver [1]; [11]): 0
Cytoplasmic Alteration (liver [1]; [11]): 1 (2×) and 2 and 3
Inflammation (liver [1]; [11]): 1 (3×) and 2
Vacuolation (liver [1]; [11]): 2 and 3 (2×) and 1
Body weight gain over the five experimental dosing days ([2]; dose groups): decrease in body weight gain
Body weight change over the five-day exposure interval [2]: resulted in body weight loss over the study interval

ClC(Cl)(Cl)Cl [carbon tetrachloride]
Centrilobular collagenous accumulation (Masson's trichrome) (liver [1]): pre-fibrogenic lesions in centrilobular region
Centrilobular collagenous accumulation (Masson's trichrome) (liver [1]; listed as Carbon tetrachloride): caused prefibrotic centrilobular collagenous accumulation
Bile Duct Hyperplasia and Fibroplasia (liver [1]; [12]): 0
Cytoplasmic Alteration (liver [1]; [12]): 0
Inflammation (liver [1]; [12]): 0
Necrosis (liver [1]; [12]): 1
Vacuolation (liver [1]; [12]): 3
Combined histopathological scores as percent of animals with pathology (liver [1]; [8]): dose-dependent increase in severe pathology
Histopathological evidence of vacuolation and/or glycogen accumulation (liver [1]; [10]): correlated with histopathological evidence of vacuolation and/or glyocgen accumulation
Bile Duct Hyperplasia and Fibroplasia (liver [1]; [11]): 0
Inflammation (liver [1]; [11]): 0
Vacuolation (liver [1]; [11]): 4 and 3 (2×)
Fibrosis histopathology (liver [1]): without fibrosis
Vacuolation (liver [1]; [9]): dose-dependent increase in vacuolation indicative of lipid accumulation without evidence of fibrosis
Body weight change ([2]; all doses): Body weight gain was less than controls at all doses
Body weight gain over the five experimental dosing days ([2]; dose groups): decrease in body weight gain

C[C@@H]1C[C@H]2[C@@H]3CCC4=CC(=O)C=C[C@]4(C)[C@@]3(F)[C@@H](O)C[C@]2(C)[C@@]1(O)C(=O)CO [dexamethasone]
Tissue necrosis (liver [1]; highest dose (300 mg/kg)): moderate tissue necrosis affecting >60-80% of the tissue in two animals
Combined histopathological scores as percent of animals with pathology (liver [1]; rat, in vivo): dose-dependent increase in severe pathology
Cytoplasmic Alteration (liver [1]; rat, in vivo): marked cytoplasmic alteration characteristic of glycogen accumulation
Histopathological evidence of vacuolation and/or glycogen accumulation (liver [1]; rat, in vivo): correlated with histopathological evidence of vacuolation and/or glyocgen accumulation
Body weight change ([2]; rat, in vivo): Body weight loss occurred at all doses
Body weight gain over the five experimental dosing days ([2]; rat, in vivo): decrease in body weight gain
Lipemia (plasma appearance) [4]: resulted in lipemia (milky white plasma)
